Data on four molecules can be found in PMC10082729, “First study on in vitro antiviral and virucidal effects of flavonoids against feline infectious peritonitis virus at the early stage of infection” (Veterinary World, 2023).

As usually defined, the EC50 is the concentration giving half of the maximal effect. A word on the EC90: it is the concentration at which the effect reaches the 90% level. A higher EC90 goes with weaker potency. A word on the IC50: it is the concentration at which inhibition is half-maximal.

Like-named read-outs stand apart in the source and are kept apart here.

One data set deals with SARS-CoV-2. The settings on record: in vitro; cited from earlier work.
The test system of a further data set is Marek’s disease virus. More on the design: method as in PMID 33008383. The settings on record: at 20 µg/mL; cited from earlier work.
The nature of a further data set: in vitro. To be noted: cat, CC50.
In data set [1] the test system is African swine fever virus. To be noted: in vitro, at 10 µg/mL; cited from earlier work.
A further data set concerns Duck hepatitis A virus. More on the design: method as in PMID 27927057. The settings on record: in vitro, at 20 µg/mL; cited from earlier work.
In another data set the test system is FIPV. As to the kind of experiment: Post-viral entry assay, FIPV-infected cells by IPMA. To be noted: Alphacoronavirus 1, CRFK.
A further data set concerns SARS-CoV-2 RdRp. The settings on record: in vitro; cited from earlier work.
For data set [2], the system named is Respiratory syncytial virus. To be noted: cited from earlier work.
For a further data set, the system named is Influenza A virus. The settings on record: in vitro; cited from earlier work.

On to `O=C(O)[C@H]1O[C@@H](Oc2cc3oc(-c4ccccc4)cc(=O)c3c(O)c2O)[C@H](O)[C@@H](O)[C@@H]1O` [Baicalin], for which the EC50 in the data set on SARS-CoV-2 is 8 to 9 µM. Moreover, the virucidal effect result in the data set on Marek’s disease virus is reported as “Virucidal effect”. Further, the CC50 at 24 h in “in vitro” was more than 200 µM.
`COc1ccc(-c2cc(=O)c3c(O)cc(O[C@@H]4O[C@H](CO[C@@H]5O[C@@H](C)[C@H](O)[C@@H](O)[C@H]5O)[C@@H](O)[C@H](O)[C@H]4O)cc3o2)cc1O` [Diosmin] came in with a CC50 at 24 h in “in vitro” of more than 200 µM. Further, the inhibition entry in [1] is “African swine fever virus (in vitro: 40% inhibition at 10 µg/mL)”.
Regarding `COc1ccc(-c2cc(=O)c3c(O)cc(O[C@@H]4O[C@H](CO[C@@H]5O[C@@H](C)[C@H](O)[C@@H](O)[C@H]5O)[C@@H](O)[C@H](O)[C@H]4O)cc3o2)cc1` [Linarin], the inhibition entry in the data set with Duck hepatitis A virus is “Duck hepatitis A virus (in vitro: 69.3% inhibition at 20 µg/mL)”. This molecule yielded a CC50 in the data set on CRFK cells of more than 200 µM.
For `O=c1cc(-c2ccc(O)c(O)c2)oc2cc(O)cc(O)c12` [Luteolin], in the data set with FIPV, a half-maximal effect (EC50) was put at 36.28 ± 0.03 µM and the EC90 was determined as 66 ± 1.82 µM. In the data set “in vitro”, this molecule registered a CC50 at 24 h of more than 200 µM. The half-inhibitory concentration (IC50) in the data set with SARS-CoV-2 RdRp is 4.6 µM. In the data set on CRFK cells (cat, 24 h), this molecule showed a CC10 of 136.80 ± 2.37 µM and a CC50 of 248 ± 3.4 µM. The “antiviral activity (in vitro concentration)” value in data set [2] was 2.08 to 24.71 µM. Besides, the EC50 in the data set with Influenza A virus is 6.89 to 7.15 µM.
